Measured values taken from ChEMBL document CHEMBL4118093, “Identification of a Hit Series of Antileishmanial Compounds through the Use of Mixture-Based Libraries” (ACS Med Chem Lett, 2017).

Key:
Leishmania donovani [1] = test: Antileishmanial activity against Leishmania donovani axenic amastigotes infected in mouse J774 cells measured after 72 hrs by Draq5 staining based high content screening assay; type: functional, organism-based; conditions: J774, 72 h
Leishmania donovani [2] = test: Antileishmanial activity against Leishmania donovani axenic amastigotes at 5 uM after 72 hrs by Celltiter reagent based assay relative to control; type: functional
Leishmania donovani [3] = test: Antileishmanial activity against Leishmania donovani axenic amastigotes at 2.5 uM after 72 hrs by Celltiter reagent based assay relative to control; type: functional
[4] = Selectivity index, ratio of IC50 for mouse J774 cells to IC50 for Leishmania donovani axenic amastigotes infected in mouse J774 cells; type: toxicity, cell-based; conditions: read-out: Ratio IC50
J774 = test: Cytotoxicity against mouse J774 cells

| IC50 (Leishmania donovani [1]) | SMILES | inhibition at 5 µM (Leishmania donovani [2]) | inhibition at 2.5 µM (Leishmania donovani [3]) | selectivity ratio [4] | IC50 (J774) |
| --- | --- | --- | --- | --- | --- |
| 5 µM | CCCC[C@H]1CN(CCCC[C@H]2CNC(=N)N2CCc2cccc(C(F)(F)F)c2)C(=N)N1CCCCC1CCCCC1 | 43% | 0% | 10 | 50 µM |
| 0.3 µM | CCCC[C@H]1CN(CCCC[C@H]2CNC(=N)N2CCc2cccc(C(F)(F)F)c2)C(=N)N1CCc1ccc(-c2ccccc2)cc1 | 100% | 47% | 88 to 89 | 28 µM |
| > 5 µM | CCCCCCCN1C(=N)N(CCCC[C@H]2CNC(=N)N2CCc2cccc(C(F)(F)F)c2)C[C@@H]1CC1CCCCC1 | 6% | 0% | < 10 | 50 µM |
| 1.3 µM | N=C1NC[C@H](CCCCN2C[C@H](CC3CCCCC3)N(CCCCC3CCCCC3)C2=N)N1CCc1cccc(C(F)(F)F)c1 | 94% | 0% | 14 | 26 µM |
| > 5 µM | N=C1NC[C@H](CCCCN2C[C@H](CC3CCCCC3)N(CCc3ccc(-c4ccccc4)cc3)C2=N)N1CCc1cccc(C(F)(F)F)c1 | 97% | 35% | < 9 | 46 µM |
| 1.3 µM | CCCCCCCN1C(=N)N(CCCC[C@H]2CNC(=N)N2CCCCC2CCCCC2)C[C@@H]1CCCC | 98% | 68% | 12 | 16 µM |
| > 5 µM | CCCC[C@H]1CN(CCCC[C@H]2CNC(=N)N2CCCCC2CCCCC2)C(=N)N1CCCCC1CCCCC1 | 99% | 71% | < 3 | 15 µM |
| 5 µM | CCCC[C@H]1CN(CCCC[C@H]2CNC(=N)N2CCCCC2CCCCC2)C(=N)N1CCc1ccc(-c2ccccc2)cc1 | 98% | 78% | 2 | 12 µM |
| 0.7 µM | CCCCCCCN1C(=N)N(CCCC[C@H]2CNC(=N)N2CCCCC2CCCCC2)C[C@@H]1CC1CCCCC1 | 95% | 97% | 36 | 25 µM |
| > 5 µM | N=C1NC[C@H](CCCCN2C[C@H](CC3CCCCC3)N(CCCCC3CCCCC3)C2=N)N1CCCCC1CCCCC1 | 95% | 77% | < 5 | 24 µM |
| 0.3 µM | N=C1NC[C@H](CCCCN2C[C@H](CC3CCCCC3)N(CCc3ccc(-c4ccccc4)cc3)C2=N)N1CCCCC1CCCCC1 | 95% | 70% | 69 | 20 µM |
| 0.6 µM | CCCC[C@H]1CN(CCCC[C@H]2CNC(=N)N2CCC23CC4CC(CC(C4)C2)C3)C(=N)N1CCCCC1CCCCC1 | 8% | 11% | 41 | 27 µM |
| 0.9 µM | CCCC[C@H]1CN(CCCC[C@H]2CNC(=N)N2CCC23CC4CC(CC(C4)C2)C3)C(=N)N1CCc1ccc(-c2ccccc2)cc1 | 0% | 0% | 25 | 22 µM |
| 0.6 µM | CCCCCCCN1C(=N)N(CCCC[C@H]2CNC(=N)N2CCc2cccc(C(F)(F)F)c2)C[C@@H]1CCCC | 26% | 9% | 81 | 48 µM |
| 2.5 µM | CCCCCCCN1C(=N)N(CCCC[C@H]2CNC(=N)N2CCC23CC4CC(CC(C4)C2)C3)C[C@@H]1CC1CCCCC1 | 85% | 14% | 11 | 26 µM |
| > 5 µM | N=C1NC[C@H](CCCCN2C[C@H](CC3CCCCC3)N(CCCCC3CCCCC3)C2=N)N1CCC12CC3CC(CC(C3)C1)C2 | 28% | 0% | < 5 | 23 µM |
| 0.9 µM | N=C1NC[C@H](CCCCN2C[C@H](CC3CCCCC3)N(CCc3ccc(-c4ccccc4)cc3)C2=N)N1CCC12CC3CC(CC(C3)C1)C2 | 57% | 14% | 20 | 17 µM |

| IC50 (Leishmania donovani [1]) | SMILES | inhibition at 5 µM (Leishmania donovani [2]) | inhibition at 2.5 µM (Leishmania donovani [3]) | selectivity ratio [4] | IC50 (J774) |
| --- | --- | --- | --- | --- | --- |
| 4.8 µM | N=C1NC[C@H](CCCCN2CCNC2=N)N1 |  |  | 10 | 50 µM |
| 1.7 µM | N=C1NC[C@H](CCCCN2C[C@@H](Cc3ccc4ccccc4c3)N(CCc3ccc(-c4ccccc4)cc3)C2=N)N1CCC12CC3CC(CC(C3)C1)C2 | 0% | 0% | 25 | 41 µM |
| 5.2 µM | N=C1NCCN1CCCC[C@H]1CNC(=N)N1CCCCC1CCCCC1 |  |  | 5 | 24 µM |
| 1.8 µM | N=C1NC[C@H](CCCCN2C[C@@H](Cc3ccc4ccccc4c3)N(CCCCC3CCCCC3)C2=N)N1CCc1cccc(C(F)(F)F)c1 | 75% | 6% | 28 | 50 µM |
| 1.3 µM | CCCCCCCN1C(=N)N(CCCC[C@H]2CNC(=N)N2CCCCC2CCCCC2)C[C@H]1Cc1ccc2ccccc2c1 | 97% | 6% | 38 | 50 µM |
| 10 µM | CCCCCCCN1CCN(CCCC[C@H]2CNC(=N)N2)C1=N |  |  | 1 | 13 µM |
| > 5 µM | CCCCCCCN1C(=N)N(CCCC[C@H]2CNC(=N)N2CCC23CC4CC(CC(C4)C2)C3)C[C@@H]1CCCC | 94% | 96% | < 6 | 32 µM |
| 3.5 µM | CCCCCCCN1C(=N)N(CCCC[C@H]2CNC(=N)N2CCc2cccc(C(F)(F)F)c2)C[C@H]1Cc1ccc2ccccc2c1 | 100% | 37% | 14 | 50 µM |
| 3.5 µM | CCCCCCCN1CCN(CCCC[C@H]2CNC(=N)N2CCCCC2CCCCC2)C1=N |  |  | 2 | 6 µM |
| 2.5 µM | CCCCCCCN1C(=N)N(CCCC[C@H]2CNC(=N)N2)C[C@@H]1CC1CCCCC1 |  |  | 20 | 50 µM |
| 1.3 µM | N=C1NC[C@H](CCCCN2C[C@@H](Cc3ccc4ccccc4c3)N(CCc3ccc(-c4ccccc4)cc3)C2=N)N1CCc1cccc(C(F)(F)F)c1 | 0% | 0% | 39 | 50 µM |
| 0.9 µM | N=C1NC[C@H](CCCCN2C[C@@H](Cc3ccc4ccccc4c3)N(CCCCC3CCCCC3)C2=N)N1CCCCC1CCCCC1 | 0% | 0% | 56 | 50 µM |
| 8.9 µM | CCCCCCCN1C(=N)N(CCCC[C@@H]2CNC(=N)N2CCCCC2CCCCC2)C[C@@H]1CC1CCCCC1 |  |  | 6 | 50 µM |
| 1.8 µM | N=C1N[C@@H](CC2CCCCC2)CN1CCCC[C@H]1CNC(=N)N1CCCCC1CCCCC1 |  |  | 16 | 27 µM |
| 2.6 µM | N=C1NC[C@H](CCCCN2C[C@@H](Cc3ccc4ccccc4c3)N(CCCCC3CCCCC3)C2=N)N1CCC12CC3CC(CC(C3)C1)C2 | 99% | 99% | 13 | 32 µM |
| > 5 µM | N=C1NC[C@H](CCCCN2C[C@@H](Cc3ccc4ccccc4c3)N(CCc3ccc(-c4ccccc4)cc3)C2=N)N1CCCCC1CCCCC1 | 95% | 15% | < 7 | 34 µM |
| 0.6 µM | CCCCCCCN1C(=N)N(CCCC[C@H]2CNC(=N)N2CCC23CC4CC(CC(C4)C2)C3)C[C@H]1Cc1ccc2ccccc2c1 | 0% | 0% | 57 | 36 µM |
